{"source": "paper PMC5218480", "about": "(PLoS ONE, 2017)", "test_system": "MV-4-11 cells", "assay": "Gene expression microarray analysis (Affymetrix PrimeView) and GSEA", "assay_type": "cell-based, human", "design": "RFU PODN (11730768_x_at) / Fold change /veh PODN (11730768_x_at) / RFU LINC00158 (11744669_a_at) / Fold change /veh LINC00158 (11744669_a_at) / RFU DUSP10 (11751237_a_at) / Fold change /veh DUSP10 (11751237_a_at) / RFU ID3 (11757404_x_at) / Fold change /veh ID3 (11757404_x_at) / RFU PLEKHG5 (11737974_s_at) / Fold change /veh PLEKHG5 (11737974_s_at) / RFU LRRC4B (11730491_at) / Fold change /veh LRRC4B (11730491_at) / RFU GIMAP4 (11747438_a_at) / Fold change /veh GIMAP4 (11747438_a_at) / RFU KRT8 (11758183_x_at) / Fold change /veh KRT8 (11758183_x_at) / RFU CNN1 (11734310_a_at) / Fold change /veh CNN1 (11734310_a_at) / RFU VPS37D (11726825_at) / Fold change /veh VPS37D (11726825_at) / RFU C10orf10 (11716522_x_at) / Fold change /veh C10orf10 (11716522_x_at) / RFU KIR2DL2 /// KIR2DL4 /// KIR2DL5A /// KIR2DL5B /// KIR2DS1 /// KIR2DS2 /// KIR2DS3 /// KIR2DS4 /// KIR3DL3 /// KIR3DL3 /// KIR3DS1 (11738374_at) / Fold change /veh KIR2DL2 /// KIR2DL4 /// KIR2DL5A /// KIR2DL5B /// KIR2DS1 /// KIR2DS2 /// KIR2DS3 /// KIR2DS4 /// KIR3DL3 /// KIR3DL3 /// KIR3DS1 (11738374_at) / RFU C1QL1 (11718748_at) / Fold change /veh C1QL1 (11718748_at) / RFU TMPRSS4 (11747572_a_at) / Fold change /veh TMPRSS4 (11747572_a_at) / RFU HAMP (11756126_x_at) / Fold change /veh HAMP (11756126_x_at) / RFU RNFT2 (11725882_a_at) / Fold change /veh RNFT2 (11725882_a_at) / RFU NR4A2 (11747474_a_at) / Fold change /veh NR4A2 (11747474_a_at) / RFU ABCC12 (11746883_a_at) / Fold change /veh ABCC12 (11746883_a_at) / RFU TMEM136 (11760407_x_at) / Fold change /veh TMEM136 (11760407_x_at) / RFU CLDN22 /// WWC2 (11732394_at) / Fold change /veh CLDN22 /// WWC2 (11732394_at) / RFU HLA-DPB1 (11760878_x_at) / Fold change /veh HLA-DPB1 (11760878_x_at) / RFU SPINT1 (11716480_a_at) / Fold change /veh SPINT1 (11716480_a_at) / RFU GAP43 (11754022_s_at) / Fold change /veh GAP43 (11754022_s_at) / RFU A4GNT (11735810_at) / Fold change /veh A4GNT (11735810_at) / RFU PRB3 (11715151_x_at) / Fold change /veh PRB3 (11715151_x_at) / RFU TUBB4B (11761932_at) / Fold change /veh TUBB4B (11761932_at) / RFU CAPN14 (11732068_a_at) / Fold change /veh CAPN14 (11732068_a_at) / RFU TMCC2 (11721928_a_at) / Fold change /veh TMCC2 (11721928_a_at) / RFU IRGQ (11745062_a_at) / Fold change /veh IRGQ (11745062_a_at) / RFU FAM174B (11720279_a_at) / Fold change /veh FAM174B (11720279_a_at) / RFU TMPRSS4 (11748680_a_at) / Fold change /veh TMPRSS4 (11748680_a_at) / RFU FAM212B (11763350_a_at) / Fold change /veh FAM212B (11763350_a_at) / RFU PLEKHG5 (11743358_a_at) / Fold change /veh PLEKHG5 (11743358_a_at) / RFU ZSCAN30 (11745921_a_at) / Fold change /veh ZSCAN30 (11745921_a_at) / RFU CMKLR1 (11741424_a_at) / Fold change /veh CMKLR1 (11741424_a_at) / RFU LOC101060620 /// MAPK8IP1 (11723275_at) / Fold change /veh LOC101060620 /// MAPK8IP1 (11723275_at) / RFU SPTSSB (11747773_x_at) / Fold change /veh SPTSSB (11747773_x_at) / RFU PRSS12 (11739890_at) / Fold change /veh PRSS12 (11739890_at) / RFU BIN1 (11741810_x_at) / Fold change /veh BIN1 (11741810_x_at) / RFU WNT11 (11732464_a_at) / Fold change /veh WNT11 (11732464_a_at) / RFU C10orf10 (11716521_a_at) / Fold change /veh C10orf10 (11716521_a_at) / RFU C5orf56 (11738089_at) / Fold change /veh C5orf56 (11738089_at) / RFU CYB561 (11721691_x_at) / Fold change /veh CYB561 (11721691_x_at) / RFU ANKRD19P (11752326_a_at) / Fold change /veh ANKRD19P (11752326_a_at) / RFU OR2T12 /// OR2T33 /// OR2T8 (11738714_s_at) / Fold change /veh OR2T12 /// OR2T33 /// OR2T8 (11738714_s_at) / RFU VCAN (11748164_a_at) / Fold change /veh VCAN (11748164_a_at) / RFU JSRP1 (11732532_at) / Fold change /veh JSRP1 (11732532_at) / RFU KRTAP10-11 (11738290_x_at) / Fold change /veh KRTAP10-11 (11738290_x_at) / RFU MYO3A (11730013_a_at) / Fold change /veh MYO3A (11730013_a_at) / RFU EBF3 (11725865_a_at) / Fold change /veh EBF3 (11725865_a_at) / RFU CAMK2N1 (11719241_x_at) / Fold change /veh CAMK2N1 (11719241_x_at) / RFU C5orf56 (11738088_a_at) / Fold change /veh C5orf56 (11738088_a_at) / RFU OLFML3 (11715873_a_at) / Fold change /veh OLFML3 (11715873_a_at) / RFU LOC100653217 /// NTM (11731650_a_at) / Fold change /veh LOC100653217 /// NTM (11731650_a_at) / RFU MAPK11 (11762145_a_at) / Fold change /veh MAPK11 (11762145_a_at) / RFU FIZ1 (11724087_x_at) / Fold change /veh FIZ1 (11724087_x_at) / RFU OASL (11726364_x_at) / Fold change /veh OASL (11726364_x_at) / RFU SOX15 (11748057_x_at) / Fold change /veh SOX15 (11748057_x_at) / RFU CD79A (11719716_a_at) / Fold change /veh CD79A (11719716_a_at) / RFU HIST1H1D (11736915_at) / Fold change /veh HIST1H1D (11736915_at) / RFU CASKIN2 (11723855_a_at) / Fold change /veh CASKIN2 (11723855_a_at) / RFU LOC730098 (11760151_x_at) / Fold change /veh LOC730098 (11760151_x_at) / RFU OR4N2 (11742367_at) / Fold change /veh OR4N2 (11742367_at) / RFU PRRT2 (11749266_a_at) / Fold change /veh PRRT2 (11749266_a_at) / RFU SNX32 (11753110_a_at) / Fold change /veh SNX32 (11753110_a_at) / RFU CDHR5 (11726645_a_at) / Fold change /veh CDHR5 (11726645_a_at) / RFU RCAN1 (11760418_a_at) / Fold change /veh RCAN1 (11760418_a_at) / RFU FAM167A (11723789_a_at) / Fold change /veh FAM167A (11723789_a_at) / RFU FAM26E (11764081_at) / Fold change /veh FAM26E (11764081_at) / RFU ISYNA1 (11749810_s_at) / Fold change /veh ISYNA1 (11749810_s_at) / RFU ACY1 (11761880_at) / Fold change /veh ACY1 (11761880_at) / RFU 11764098_at / Fold change /veh 11764098_at / RFU SAMD14 (11745864_x_at) / Fold change /veh SAMD14 (11745864_x_at) / RFU NPB (11741838_a_at) / Fold change /veh NPB (11741838_a_at) / RFU TMPRSS6 (11731388_a_at) / Fold change /veh TMPRSS6 (11731388_a_at) / RFU KRTAP10-2 (11738614_at) / Fold change /veh KRTAP10-2 (11738614_at) / RFU ARHGAP8 /// PRR5-ARHGAP8 (11727945_x_at) / Fold change /veh ARHGAP8 /// PRR5-ARHGAP8 (11727945_x_at) / RFU KRTAP5-7 /// NADSYN1 (11734609_at) / Fold change /veh KRTAP5-7 /// NADSYN1 (11734609_at) / RFU RASL12 (11751679_a_at) / Fold change /veh RASL12 (11751679_a_at) / RFU CDKN2B (11736163_a_at) / Fold change /veh CDKN2B (11736163_a_at) / RFU PRF1 (11729649_at) / Fold change /veh PRF1 (11729649_at) / RFU, ZNF638 /// ZNF638-IT1 / Fold change vs veh, ZNF638 /// ZNF638-IT1 / RFU, PANK3 / Fold change vs veh, PANK3 / RFU, SH3YL1 / Fold change vs veh, SH3YL1 / RFU, ZEB2 / Fold change vs veh, ZEB2 / RFU, NRIP1 / Fold change vs veh, NRIP1 / RFU, PTTG1IP / Fold change vs veh, PTTG1IP / RFU, CAPN2 / Fold change vs veh, CAPN2 / RFU, MED14 / Fold change vs veh, MED14 / RFU, SNORA58 / Fold change vs veh, SNORA58 / RFU, C1orf63 / Fold change vs veh, C1orf63 / RFU, LRRFIP1 / Fold change vs veh, LRRFIP1 / RFU, NDUFAF7 / Fold change vs veh, NDUFAF7 / RFU, SLC12A2 / Fold change vs veh, SLC12A2 / RFU, IBTK / Fold change vs veh, IBTK / RFU, ESF1 / Fold change vs veh, ESF1 / Fold change vs veh, TMEM50B / RFU, TAOK1 / Fold change vs veh, TAOK1 / RFU, ACBD3 / Fold change vs veh, ACBD3 / RFU, TMA16 / Fold change vs veh, TMA16 / RFU, RWDD3 / Fold change vs veh, RWDD3 / RFU, BCAT1 / Fold change vs veh, BCAT1 / RFU, EDEM3 / Fold change vs veh, EDEM3 / RFU, TMEM33 / Fold change vs veh, TMEM33 / RFU, WDR75 / Fold change vs veh, WDR75 / RFU, AHCTF1 / Fold change vs veh, AHCTF1 / RFU, TFRC / Fold change vs veh, TFRC / RFU, ZDHHC17 / Fold change vs veh, ZDHHC17 / RFU, NOM1 / Fold change vs veh, NOM1 / RFU, ARL8B / Fold change vs veh, ARL8B / RFU, ZBTB11 / Fold change vs veh, ZBTB11 / RFU, TAMM41 / Fold change vs veh, TAMM41 / RFU, KIAA1704 /// LOC100996395 / Fold change vs veh, KIAA1704 /// LOC100996395 / RFU, ING1 / Fold change vs veh, ING1 / RFU, TRMT61B / Fold change vs veh, TRMT61B / RFU, FUBP3 / Fold change vs veh, FUBP3 / RFU, TP53 / Fold change vs veh, TP53 / RFU, TNKS2 / Fold change vs veh, TNKS2 / RFU, ZFP14 / Fold change vs veh, ZFP14 / RFU, ACTR2 / Fold change vs veh, ACTR2 / RFU, PPP3R1 / Fold change vs veh, PPP3R1 / RFU, PIK3R1 / Fold change vs veh, PIK3R1 / RFU, HNRNPA1 / Fold change vs veh, HNRNPA1 / RFU, RNF170 / Fold change vs veh, RNF170 / RFU, ZNF28 / Fold change vs veh, ZNF28 / RFU, RNGTT / Fold change vs veh, RNGTT / RFU, OGT / Fold change vs veh, OGT / RFU, BRD1 / Fold change vs veh, BRD1 / RFU, MARS / Fold change vs veh, MARS / RFU, ZNF655 / Fold change vs veh, ZNF655 / RFU, FAHD1 / Fold change vs veh, FAHD1 / RFU, BDP1 / Fold change vs veh, BDP1 / RFU, LRRCC1 / Fold change vs veh, LRRCC1 / RFU, ARID1A / Fold change vs veh, ARID1A / RFU, ZNF146 / Fold change vs veh, ZNF146 / RFU, ZNF330 / Fold change vs veh, ZNF330 / RFU, GPN3 / Fold change vs veh, GPN3 / RFU, C9orf123 / Fold change vs veh, C9orf123 / RFU, N4BP2L2 / Fold change vs veh, N4BP2L2 / RFU, ARFIP1 / Fold change vs veh, ARFIP1 / RFU, FAM179B / Fold change vs veh, FAM179B / RFU, BCL10 / Fold change vs veh, BCL10 / RFU, UHRF1BP1L / Fold change vs veh, UHRF1BP1L / RFU, BET1 / Fold change vs veh, BET1 / RFU, CNOT2 / Fold change vs veh, CNOT2 / RFU, ZNF268 / Fold change vs veh, ZNF268 / Fold change vs veh, ZNF507 / RFU, DGCR2 / Fold change vs veh, DGCR2 / RFU, WDSUB1 / Fold change vs veh, WDSUB1 / Fold change vs veh, HSP90B1 /// MIR3652 / RFU, ADSS / Fold change vs veh, ADSS / RFU, GK / Fold change vs veh, GK / RFU, ZNF148 / Fold change vs veh, ZNF148 / RFU, TAF9 / Fold change vs veh, TAF9 / RFU, SLC1A5 / Fold change vs veh, SLC1A5 / RFU, SLMO2 / Fold change vs veh, SLMO2 / RFU, ABCC4 / Fold change vs veh, ABCC4 / RFU, LOC101060439 /// RAP1B / Fold change vs veh, LOC101060439 /// RAP1B / RFU, RFX7 / Fold change vs veh, RFX7 / RFU, GTPBP10 / Fold change vs veh, GTPBP10 / RFU, CNEP1R1 / Fold change vs veh, CNEP1R1 / RFU, BIVM-ERCC5 /// ERCC5 / Fold change vs veh, BIVM-ERCC5 /// ERCC5 / RFU, ILF3 / Fold change vs veh, ILF3 / RFU 11762660_at / Fold change /veh 11762660_at / RFU VCAN (11757783_s_at) / Fold change /veh VCAN (11757783_s_at) / RFU DDX43 (11728927_at) / Fold change /veh DDX43 (11728927_at) / RFU KRT8 (11758188_x_at) / Fold change /veh KRT8 (11758188_x_at) / RFU NKD1 (11759106_at) / Fold change /veh NKD1 (11759106_at) / RFU SRD5A1 (11742802_a_at) / Fold change /veh SRD5A1 (11742802_a_at) / RFU TPSAB1 /// TPSB2 (11721975_s_at) / Fold change /veh TPSAB1 /// TPSB2 (11721975_s_at) / RFU GSTM3 (11746129_a_at) / Fold change /veh GSTM3 (11746129_a_at) / RFU IL23R (11737362_x_at) / Fold change /veh IL23R (11737362_x_at) / RFU TMEM51 (11727254_a_at) / Fold change /veh TMEM51 (11727254_a_at) / RFU PIWIL2 (11732686_x_at) / Fold change /veh PIWIL2 (11732686_x_at) / RFU ORM1 (11744905_x_at) / Fold change /veh ORM1 (11744905_x_at) / RFU CCDC152 (11743942_at) / Fold change /veh CCDC152 (11743942_at) / RFU ECM1 (11717891_a_at) / Fold change /veh ECM1 (11717891_a_at) / RFU IL23R (11748794_a_at) / Fold change /veh IL23R (11748794_a_at) / RFU TNFAIP8L3 (11732012_x_at) / Fold change /veh TNFAIP8L3 (11732012_x_at) / RFU MBOAT4 (11741988_at) / Fold change /veh MBOAT4 (11741988_at) / RFU 11764193_at / Fold change /veh 11764193_at / RFU TMEM53 (11763286_at) / Fold change /veh TMEM53 (11763286_at) / RFU MAGEB2 (11727129_at) / Fold change /veh MAGEB2 (11727129_at) / RFU TMEM200A (11744735_a_at) / Fold change /veh TMEM200A (11744735_a_at) / RFU CCDC152 (11751479_a_at) / Fold change /veh CCDC152 (11751479_a_at) / RFU FAM211A (11726209_a_at) / Fold change /veh FAM211A (11726209_a_at) / RFU RGS16 (11746705_a_at) / Fold change /veh RGS16 (11746705_a_at) / RFU VCAN (11755009_s_at) / Fold change /veh VCAN (11755009_s_at) / RFU RHOB (11743442_s_at) / Fold change /veh RHOB (11743442_s_at) / RFU RGS16 (11720943_a_at) / Fold change /veh RGS16 (11720943_a_at) / RFU RGS16 (11720944_at) / Fold change /veh RGS16 (11720944_at) / RFU, VPS4B / Fold change vs veh, VPS4B / RFU, CREB1 / Fold change vs veh, CREB1 / RFU, DNAJC13 / Fold change vs veh, DNAJC13 / RFU, GNAQ / Fold change vs veh, GNAQ / RFU, CDK5R1 / Fold change vs veh, CDK5R1 / RFU, ZRANB3 / Fold change vs veh, ZRANB3 / RFU, CUL4A / Fold change vs veh, CUL4A / RFU, CCNY / Fold change vs veh, CCNY / RFU, UFL1 / Fold change vs veh, UFL1 / RFU, COG3 / Fold change vs veh, COG3 / RFU, DIAPH2 / Fold change vs veh, DIAPH2 / RFU, SKA2 / Fold change vs veh, SKA2 / RFU, AFF3 / Fold change vs veh, AFF3 / RFU, LMF1 / Fold change vs veh, LMF1 / RFU, IPO11 / Fold change vs veh, IPO11 / RFU, DFFB / Fold change vs veh, DFFB / RFU, FOXP1 / Fold change vs veh, FOXP1 / RFU, CARD8 / Fold change vs veh, CARD8 / RFU, STRN3 / Fold change vs veh, STRN3 / RFU, ADK / Fold change vs veh, ADK / RFU, RASSF2 / Fold change vs veh, RASSF2 / RFU, WIPF1 / Fold change vs veh, WIPF1 / RFU, LARP1B / Fold change vs veh, LARP1B / RFU, RASA1 / Fold change vs veh, RASA1 / RFU, RB1 / Fold change vs veh, RB1 / RFU, PPFIA1 / Fold change vs veh, PPFIA1 / RFU, MAT2A / Fold change vs veh, MAT2A / RFU, CCT5 / Fold change vs veh, CCT5 / RFU, WDR92 / Fold change vs veh, WDR92 / RFU, CUX1 / Fold change vs veh, CUX1 / RFU, TTC7A / Fold change vs veh, TTC7A / RFU, TMEM135 / Fold change vs veh, TMEM135 / RFU, DEPTOR / Fold change vs veh, DEPTOR / RFU, CPM / Fold change vs veh, CPM / RFU, DNAJB6 / Fold change vs veh, DNAJB6 / RFU, CACNA2D3 / Fold change vs veh, CACNA2D3 / RFU, DTX4 / Fold change vs veh, DTX4 / RFU, TFCP2 / Fold change vs veh, TFCP2 / RFU, GMCL1 /// GMCL1P1 / Fold change vs veh, GMCL1 /// GMCL1P1 / RFU, AEBP2 / Fold change vs veh, AEBP2 / RFU, SNHG1 /// SNORD22 /// SNORD25 /// SNORD26 /// SNORD27 /// SNORD28 /// SNORD29 /// SNORD31 / Fold change vs veh, SNHG1 /// SNORD22 /// SNORD25 /// SNORD26 /// SNORD27 /// SNORD28 /// SNORD29 /// SNORD31 / Fold change (Aza/veh), C12orf56 (ProbeSet 11735607_a_at) / Fold change (ACY-1035/veh), C12orf56 (ProbeSet 11735607_a_at) / Fold change (Aza/veh), FGFR1OP (ProbeSet 11751329_s_at) / Fold change (ACY-1035/veh), FGFR1OP (ProbeSet 11751329_s_at) / Fold change (Aza/veh), VPS36 (ProbeSet 11739960_a_at) / Fold change (ACY-1035/veh), VPS36 (ProbeSet 11739960_a_at) / RFU SYPL1 (11715823_x_at) / Fold change /veh SYPL1 (11715823_x_at) / RFU IGFBP7 (11715501_s_at) / Fold change /veh IGFBP7 (11715501_s_at) / RFU REEP3 (11722064_at) / Fold change /veh REEP3 (11722064_at) / RFU IGLL1 (11728026_x_at) / Fold change /veh IGLL1 (11728026_x_at): dose or concentration left out as unconfirmed", "details": "ProbeSet 11753055_s_at; LIST B"}
{"smiles": "Nc1ccc(-c2cccs2)cc1NC(=O)c1ccc2c(c1)cc(C1CC1)n2CCN1CCOCC1", "note": "[ACY-1035]", "values": [{"measurement": "RFU, LOC101060439 /// RAP1B", "result": 639.03, "unit": "RFU"}]}
